In ChEMBL document CHEMBL5634148, “Synthesis and evaluation of novel pleuromutilin derivatives targeting the 50S ribosomal subunit for antibacterial ability” (Eur J Med Chem, 2023):
Converted amounts (≈) assume the structure as drawn.

system: Staphylococcus epidermidis; test: Antibacterial activity against methicillin-resistant Staphylococcus epidermidis ATCC 51625 assessed as bacterial growth inhibition incubated for 18 to 24 hrs by NCCLS based assay; type: functional; details: time 18-24 hrs

Compared with `C=C[C@]1(C)C[C@@H](OC(=O)CSc2ncnc(N(CC)CC)n2)[C@]2(C)[C@H](C)CC[C@]3(CCC(=O)[C@H]32)[C@@H](C)[C@@H]1O`, `C=C[C@]1(C)C[C@@H](OC(=O)CSc2ncnc(Cl)n2)[C@]2(C)[C@H](C)CC[C@]3(CCC(=O)[C@H]32)[C@@H](C)[C@@H]1O` is 64-fold higher in MIC: 0.125 µg/mL (≈ 0.229 µM) for the first, 8 µg/mL (≈ 15.7 µM) for the second.

`C=C[C@]1(C)C[C@@H](OC(=O)CSc2ncnc(NCCNCC)n2)[C@]2(C)[C@H](C)CC[C@]3(CCC(=O)[C@H]32)[C@@H](C)[C@@H]1O` and `C=C[C@]1(C)C[C@@H](OC(=O)CSc2ncnc(N3CCCC3)n2)[C@]2(C)[C@H](C)CC[C@]3(CCC(=O)[C@H]32)[C@@H](C)[C@@H]1O` are the same in MIC: 0.25 µg/mL (≈ 0.447 µM) for the first, 0.25 µg/mL (≈ 0.461 µM) for the second.

Work on `C=C[C@]1(C)C[C@@H](OC(=O)CSc2ncnc(N3CCNCC3)n2)[C@]2(C)[C@H](C)CC[C@]3(CCC(=O)[C@H]32)[C@@H](C)[C@@H]1O` yielded an MIC of 2 µg/mL (≈ 3.59 µM).

system: Streptococcus agalactiae; test: Antibacterial activity against Streptococcus agalactiae assessed as bacterial growth inhibition incubated for 18 to 24 hrs by NCCLS based assay; type: functional; details: time 18-24 hrs

First: C=C[C@]1(C)C[C@@H](OC(=O)CSc2ncnc(N(CC)CC)n2)[C@]2(C)[C@H](C)CC[C@]3(CCC(=O)[C@H]32)[C@@H](C)[C@@H]1O
Second: C=C[C@]1(C)C[C@@H](OC(=O)CSc2ncnc(Cl)n2)[C@]2(C)[C@H](C)CC[C@]3(CCC(=O)[C@H]32)[C@@H](C)[C@@H]1O
The MIC of the first is 8-fold lower: 0.25 µg/mL (≈ 0.459 µM) for the first, 2 µg/mL (≈ 3.94 µM) for the second.

`C=C[C@]1(C)C[C@@H](OC(=O)CSc2ncnc(NCCNCC)n2)[C@]2(C)[C@H](C)CC[C@]3(CCC(=O)[C@H]32)[C@@H](C)[C@@H]1O` and `C=C[C@]1(C)C[C@@H](OC(=O)CSc2ncnc(N3CCCC3)n2)[C@]2(C)[C@H](C)CC[C@]3(CCC(=O)[C@H]32)[C@@H](C)[C@@H]1O` are the same in MIC: 0.25 µg/mL (≈ 0.447 µM) for the first, 0.25 µg/mL (≈ 0.461 µM) for the second.

`C=C[C@]1(C)C[C@@H](OC(=O)CSc2ncnc(N3CCNCC3)n2)[C@]2(C)[C@H](C)CC[C@]3(CCC(=O)[C@H]32)[C@@H](C)[C@@H]1O` gave an MIC of 0.25 µg/mL (≈ 0.448 µM).

system: Staphylococcus aureus; test: Antibacterial activity against Staphylococcus aureus ATCC 25923 assessed as bacterial growth inhibition incubated for 18 to 24 hrs by NCCLS based assay; type: functional; details: time 18-24 hrs

Going from `C=C[C@]1(C)C[C@@H](OC(=O)CSc2ncnc(N(CC)CC)n2)[C@]2(C)[C@H](C)CC[C@]3(CCC(=O)[C@H]32)[C@@H](C)[C@@H]1O` to `C=C[C@]1(C)C[C@@H](OC(=O)CSc2ncnc(Cl)n2)[C@]2(C)[C@H](C)CC[C@]3(CCC(=O)[C@H]32)[C@@H](C)[C@@H]1O`, the MIC rises from 0.125 µg/mL (≈ 0.229 µM) to 4 µg/mL (≈ 7.87 µM) (32-fold).

Compared with `C=C[C@]1(C)C[C@@H](OC(=O)CSc2ncnc(NCCNCC)n2)[C@]2(C)[C@H](C)CC[C@]3(CCC(=O)[C@H]32)[C@@H](C)[C@@H]1O`, `C=C[C@]1(C)C[C@@H](OC(=O)CSc2ncnc(N3CCCC3)n2)[C@]2(C)[C@H](C)CC[C@]3(CCC(=O)[C@H]32)[C@@H](C)[C@@H]1O` is 2-fold higher in MIC: 0.063 µg/mL (≈ 0.113 µM) for the first, 0.125 µg/mL (≈ 0.23 µM) for the second.

`C=C[C@]1(C)C[C@@H](OC(=O)CSc2ncnc(N3CCNCC3)n2)[C@]2(C)[C@H](C)CC[C@]3(CCC(=O)[C@H]32)[C@@H](C)[C@@H]1O` gave an MIC of 1 µg/mL (≈ 1.79 µM).

system: Escherichia coli; test: Antibacterial activity against Escherichia coli CICC 10389 assessed as bacterial growth inhibition incubated for 18 to 24 hrs by NCCLS based assay; type: functional; details: time 18-24 hrs

`C=C[C@]1(C)C[C@@H](OC(=O)CSc2ncnc(N(CC)CC)n2)[C@]2(C)[C@H](C)CC[C@]3(CCC(=O)[C@H]32)[C@@H](C)[C@@H]1O` and `C=C[C@]1(C)C[C@@H](OC(=O)CSc2ncnc(Cl)n2)[C@]2(C)[C@H](C)CC[C@]3(CCC(=O)[C@H]32)[C@@H](C)[C@@H]1O` cannot be ordered by MIC: ≥ 64 µg/mL for the first, ≥ 64 µg/mL for the second.

`C=C[C@]1(C)C[C@@H](OC(=O)CSc2ncnc(NCCNCC)n2)[C@]2(C)[C@H](C)CC[C@]3(CCC(=O)[C@H]32)[C@@H](C)[C@@H]1O` and `C=C[C@]1(C)C[C@@H](OC(=O)CSc2ncnc(N3CCCC3)n2)[C@]2(C)[C@H](C)CC[C@]3(CCC(=O)[C@H]32)[C@@H](C)[C@@H]1O` cannot be ordered by MIC: ≥ 64 µg/mL for the first, ≥ 64 µg/mL for the second.

In the case of `C=C[C@]1(C)C[C@@H](OC(=O)CSc2ncnc(N3CCNCC3)n2)[C@]2(C)[C@H](C)CC[C@]3(CCC(=O)[C@H]32)[C@@H](C)[C@@H]1O`, the MIC is reported as ≥ 64 µg/mL.

system: Enterococcus faecalis; test: Antibacterial activity against Enterococcus faecalis assessed as bacterial growth inhibition incubated for 18 to 24 hrs by NCCLS based assay; type: functional; details: time 18-24 hrs

Compared with `C=C[C@]1(C)C[C@@H](OC(=O)CSc2ncnc(N(CC)CC)n2)[C@]2(C)[C@H](C)CC[C@]3(CCC(=O)[C@H]32)[C@@H](C)[C@@H]1O`, `C=C[C@]1(C)C[C@@H](OC(=O)CSc2ncnc(Cl)n2)[C@]2(C)[C@H](C)CC[C@]3(CCC(=O)[C@H]32)[C@@H](C)[C@@H]1O` is lower in MIC: ≥ 64 µg/mL for the first, 32 µg/mL (≈ 63 µM) for the second.

`C=C[C@]1(C)C[C@@H](OC(=O)CSc2ncnc(NCCNCC)n2)[C@]2(C)[C@H](C)CC[C@]3(CCC(=O)[C@H]32)[C@@H](C)[C@@H]1O` and `C=C[C@]1(C)C[C@@H](OC(=O)CSc2ncnc(N3CCCC3)n2)[C@]2(C)[C@H](C)CC[C@]3(CCC(=O)[C@H]32)[C@@H](C)[C@@H]1O` are the same in MIC: 32 µg/mL (≈ 57.2 µM) for the first, 32 µg/mL (≈ 59 µM) for the second.

In the case of `C=C[C@]1(C)C[C@@H](OC(=O)CSc2ncnc(N3CCNCC3)n2)[C@]2(C)[C@H](C)CC[C@]3(CCC(=O)[C@H]32)[C@@H](C)[C@@H]1O`, the MIC is reported as ≥ 64 µg/mL.

system: Pasteurella multocida; test: Antibacterial activity against Pasteurella multocida CVCC 1659 assessed as bacterial growth inhibition incubated for 18 to 24 hrs by NCCLS based assay; type: functional; details: time 18-24 hrs

`C=C[C@]1(C)C[C@@H](OC(=O)CSc2ncnc(N(CC)CC)n2)[C@]2(C)[C@H](C)CC[C@]3(CCC(=O)[C@H]32)[C@@H](C)[C@@H]1O` and `C=C[C@]1(C)C[C@@H](OC(=O)CSc2ncnc(Cl)n2)[C@]2(C)[C@H](C)CC[C@]3(CCC(=O)[C@H]32)[C@@H](C)[C@@H]1O` cannot be ordered by MIC: ≥ 64 µg/mL for the first, ≥ 64 µg/mL for the second.

`C=C[C@]1(C)C[C@@H](OC(=O)CSc2ncnc(NCCNCC)n2)[C@]2(C)[C@H](C)CC[C@]3(CCC(=O)[C@H]32)[C@@H](C)[C@@H]1O` and `C=C[C@]1(C)C[C@@H](OC(=O)CSc2ncnc(N3CCCC3)n2)[C@]2(C)[C@H](C)CC[C@]3(CCC(=O)[C@H]32)[C@@H](C)[C@@H]1O` cannot be ordered by MIC: ≥ 64 µg/mL for the first, ≥ 64 µg/mL for the second.

`C=C[C@]1(C)C[C@@H](OC(=O)CSc2ncnc(N3CCNCC3)n2)[C@]2(C)[C@H](C)CC[C@]3(CCC(=O)[C@H]32)[C@@H](C)[C@@H]1O` was tested, and the MIC was ≥ 64 µg/mL.

system: Staphylococcus aureus; test: Antibacterial activity against methicillin-resistant Staphylococcus aureus BNCC 337371 assessed as bacterial growth inhibition incubated for 18 to 24 hrs by NCCLS based assay; type: functional; details: time 18-24 hrs

First: C=C[C@]1(C)C[C@@H](OC(=O)CSc2ncnc(N(CC)CC)n2)[C@]2(C)[C@H](C)CC[C@]3(CCC(=O)[C@H]32)[C@@H](C)[C@@H]1O
Second: C=C[C@]1(C)C[C@@H](OC(=O)CSc2ncnc(Cl)n2)[C@]2(C)[C@H](C)CC[C@]3(CCC(=O)[C@H]32)[C@@H](C)[C@@H]1O
The MIC of the first is 32-fold lower: 0.25 µg/mL (≈ 0.459 µM) for the first, 8 µg/mL (≈ 15.7 µM) for the second.

`C=C[C@]1(C)C[C@@H](OC(=O)CSc2ncnc(NCCNCC)n2)[C@]2(C)[C@H](C)CC[C@]3(CCC(=O)[C@H]32)[C@@H](C)[C@@H]1O` and `C=C[C@]1(C)C[C@@H](OC(=O)CSc2ncnc(N3CCCC3)n2)[C@]2(C)[C@H](C)CC[C@]3(CCC(=O)[C@H]32)[C@@H](C)[C@@H]1O` are the same in MIC: 0.125 µg/mL (≈ 0.223 µM) for the first, 0.125 µg/mL (≈ 0.23 µM) for the second.

Compound `C=C[C@]1(C)C[C@@H](OC(=O)CSc2ncnc(N3CCNCC3)n2)[C@]2(C)[C@H](C)CC[C@]3(CCC(=O)[C@H]32)[C@@H](C)[C@@H]1O` has an MIC of 2 µg/mL (≈ 3.59 µM).
